Reference: US7314866B2, “Ku-70-derived Bax-suppressing peptides and use thereof for the protection of damaged cells” (Bloodcenter of Wisconsin, Inc., priority 2002, dated 2008)
Entries after “also recorded” stand apart in the source; their conditions may differ. Where a SMILES comes first, the peptide text is derived from it. Where no end group is shown, it is not given here. The star is where a group is joined. FITC = O=C1OC2(c3ccc(O)cc3Oc3cc(O)ccc32)c2ccc(NC(=S)*)cc21; Biotin = O=C1N[C@H]2[C@H](CS[C@H]2CCCCC(=O)*)N1; Cbz = O=C(OCc1ccccc1)*; CH2F = FC*

Tests used:
endogenous Bax = target: T1, endogenous Bax (Mus musculus, UniProt Q07813); experiment: Scatchard analysis of the binding of FITC-V5 and Bax; settings: Bax-immunodepleted cell lysates
T1 construct: endogenous in cells; host or cells: Ku70-deficient mouse embryonic fibroblasts, cytosol fraction
Experimental: (§1) FIG. 4A: One day following UVC-irradiation or STS-treatment in the absence (UV and STS) or presence of 200 uM negative control (NC) peptide (UV+NC and STS+NC) or V5 peptide (UV+V5 and STS+V5), subcellular fractionation of HeLa cells (10^6 cells) was performed. FoF1 ATP synthase subunit α (F1α) was used to mark the mitochondrial fraction. HM stands for “Heavy Membrane” fraction containing mitochondria. FIG. 4C: cytochrome c release from mitochondria is inhibited by BIP, but not z-VAD-fmk. HeLa cells (10^6 cells) were treated with 200 nM STS in the presence or absence of 200 uM negative control (NC) peptide, V5 peptide, or z-VAD-fmk for 24 hours. Cytochrome c released from mitochondria into cytosol was analyzed by subcellular fractionation followed by Western blot analysis of cytochrome c (cyt c) as well as mitochondrial FoF1-ATP-synthase subunit F1α (F1α) as described in Methods. […] Caspase activity was assessed as described in Methods. […]
Ku70-deficient MEFs (10^7 cells) were lysed in 200 ul of “detergent-free hypotonic buffer” (hypotonic (5 mM NaCl) phosphate buffered saline, pH 7.4) containing protease inhibitors (100 times dilution of Protease Inhibitors Cocktail; Sigma) according to the previously reported method (Hsu and Youle, supra, 1998). […] Kd was calculated by Scatchard plot. […]

Caspase = Caspase activity (DEVD-afc cleavage); type: cell-based, human; settings: HeLa cells, 200 nM STS, 200 uM, 24 hours
Experimental: as §1
HEK293T and HeLa cells were cultured in MEM supplemented with 10% fetal bovine serum (FBS) and Du145 cells and mouse embryonic fibroblasts (MEFs) were in DMEM with 10% FBS. […] Apoptosis in the transfected cells was analyzed as follows: A plasmid encoding enhanced green fluorescent protein (EGFP) (0.5 ug to 10^6 cells) was transfected to all the groups to mark the transfected cells. […]

HEK293T cells = experiment: Bax-induced apoptosis in HEK293T cells (pcDNA3-Bax transfection, Hoechst staining); type: cell-based, human; settings: added to the culture medium
Experimental: FIG. 1 illustrates that new peptides designed from Ku70 show anti-Bax activity. FIG. 1A: scheme of Ku70 full-length (Ku70 wt), Ku701-577 (Ku70Δ578–609), or Ku70578-609 (Ku70Δ1–577). FIG. 1C: HEK293T cells were transfected with 1.0 ug of pCMV-2B-control vector (Control) or pcDNA3-Bax (Bax) together with 2.0 ug of pCMV-2B-Ku70 wt (Ku70 wt), pCMV-2B-Ku701-577 (Ku701-577), or pCMV-2B-Ku70578-609 (Ku70578-609). All the cells were also co-transfected with 0.5 ug pEGFP for the marking of transfected cells. Apoptosis in the transfected cells was analyzed 24 hours following transfection with Hoechst dye staining of the nucleus as described in Methods. FIG. 1D: HEK293T cells were incubated with 200 uM peptide composed of Ku70578-587 or Ku70596-600 for 4 hours using BioPorter reagent, and then transfected with 1.0 ug of pCDNA3-control vector (Control) or pcDNA3-Bax (Bax). The number of apoptotic cells was determined as described in FIG. 1C. FIG. 1E: HEK293T cells (10^6 cells) were incubated with 200 uM IPMIK (negative control peptide) or VPMLK (V5) and PMLKE (P5) peptides at the indicated concentrations for 1 hour and then incubated cells were transfected with 1.0 ug of pcDNA3-Bax. Also, unincubated cells were transfected with 1.0 ug of pcDNA3-Bax in the presence or absence of 200 uM z-VAD-fmk. The number of apoptotic cells was determined as described in FIG. 1C. FIG. 1F: Summary of the anti-Bax activity and sequence of all peptides used.
HEK293T and HeLa cells were cultured in MEM supplemented with 10% fetal bovine serum (FBS) and Du145 cells and mouse embryonic fibroblasts (MEFs) were in DMEM with 10% FBS. Transfection of the plasmids was performed by SuperFect (Qiagen) according to the manufacturer's manual. Apoptosis was induced by pcDNA3-human Bax (Bax-encoding plasmid)-transfection, Staurosporin (STS)-treatment and UVC-irradiation. The amount of the plasmids, the concentration of STS, and the energy of UVC-irradiation are described in the figure legends. Apoptosis in the transfected cells was analyzed as follows: A plasmid encoding enhanced green fluorescent protein (EGFP) (0.5 ug to 10^6 cells) was transfected to all the groups to mark the transfected cells. After the treatment, cells were stained with Hoechst dye and cells with apoptotic nuclei were counted in GFP-expressing cells under the fluorescent microscope as described by Matsuyama, et al., J. Biol. Chem. 273:30995–31001, 1998. Each point in the figures showing percentages of apoptosis represents the mean +/−SE of three experiments. Caspase activities of cells were measured by detecting the cleavage of fluorogenic substrate of Caspase (DEVD-afc) as previously described.
BioPorter-based peptide delivery was performed 4 hours before apoptosis induction.

Bax = experiment: Co-precipitation of biotin-labeled peptides and endogenous Bax using streptavidin beads; type: binding, human; settings: HEK293T lysates, CHAPS buffer
human Bax [1] = target: T2, human Bax (human, UniProt Q07812 1-192); experiment: conclusion drawn from the biotin-peptide streptavidin pull-down
T2 construct: Protein in cell lysates or cells, not purified; also called endogenous Bax; pcDNA3-Bax (human)
Experimental: The interaction of BIP and Bax was confirmed by experiments using the system of biotin-labeled BIP and streptavidin beads. Biotin-labeled BIP (biotin-VPMLK; SEQ ID NO: 1), but not negative control peptide (biotin-IPMIK; SEQ ID NO: 5) precipitated Bax from the cell lysates when the streptavidin beads were added to the samples.
(§2) Endogenous protein: HEK293T (10^7 cells) were lysed in 200 ul of "CHAPS-based buffer" (150 mM NaCl, 10 mM Hepes, pH 7.4, 1.0% CHAPS) containing protease inhibitors (100 times dilution of Protease Inhibitors Cocktail; Sigma) according to the previously reported method (Hsu and Youle, *J. Biol. Chem.* 273:10777–10783, 1998). After pre-cleaning of 600 ul of the sample with 50 ul of Protein G-Sepharose at 4° C. for 1 hour, immunoprecipitations were performed by incubating 200 ul of lysates with 20 ul of Protein G-Sepharose preabsorbed with 2 ug of anti-Bax polyclonal (BD-Pharmingen) or anti-Ku70 monoclonal antibody (BD-Pharmingen) at 4° C. for 2 hours. In some cases, 2 ug of anti-Bax monoclonal antibody (clone 6A7, BD Pharmingen) was used to detect active form of Bax. […]

Bak = target: T3, Bak (human, UniProt Q16611 2-211); experiment: streptavidin bead pull-down from HEK293T CHAPS lysates, Western blot of Bak
T3 sequence (looked up): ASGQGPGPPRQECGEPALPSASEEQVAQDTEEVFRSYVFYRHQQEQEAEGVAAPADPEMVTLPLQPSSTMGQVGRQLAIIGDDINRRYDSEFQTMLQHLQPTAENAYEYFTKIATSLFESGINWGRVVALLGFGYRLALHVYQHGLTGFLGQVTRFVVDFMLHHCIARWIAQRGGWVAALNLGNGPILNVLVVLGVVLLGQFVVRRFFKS

human Bax [2] = target: T2, human Bax; experiment: streptavidin bead pull-down from HEK293T CHAPS lysates, Western blot of Bax
Experimental: as §2, with “Bax. After extensive washing in the buffer, beads were boiled in 40 ul of Laemmli buffer and 20 ul of the eluted proteins were subjected to SDS-PAGE. *Co-precipitation of biotin-labeled peptides and endogenous Bax using streptavidin beads*: HEK293T cells (10^7 cells) lysed in 200 ul CHAPS-based buffer were incubated with biotin-labeled negative control (NC) peptide or VPMLK (V5; SEQ ID NO: 1) peptide for 1 hour. The concentrations of NC and V5 peptide labeled with biotin are described in the figure legends.” for “Bax.”

T2 sequence (Q07812 whole entry): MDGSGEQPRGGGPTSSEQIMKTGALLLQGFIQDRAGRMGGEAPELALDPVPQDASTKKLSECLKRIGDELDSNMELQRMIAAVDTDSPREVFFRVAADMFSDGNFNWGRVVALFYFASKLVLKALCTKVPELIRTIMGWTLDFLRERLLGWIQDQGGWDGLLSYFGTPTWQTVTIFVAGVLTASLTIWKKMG
T1 sequence (Q07813 whole entry): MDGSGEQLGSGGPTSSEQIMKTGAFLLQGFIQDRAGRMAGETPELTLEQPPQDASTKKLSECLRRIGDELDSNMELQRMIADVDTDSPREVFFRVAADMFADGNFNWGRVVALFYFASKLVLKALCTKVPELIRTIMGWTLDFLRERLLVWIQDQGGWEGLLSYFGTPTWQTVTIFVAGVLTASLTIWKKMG

In the case of CSCC[C@H](NC(=O)[C@@H]1CCCN1C(=O)[C@@H](NC(=S)Nc1ccc2c(c1)C(=O)OC21c2ccc(O)cc2Oc2cc(O)ccc21)C(C)C)C(=O)N[C@@H](CC(C)C)C(=O)N[C@@H](CCCCN)C(=O)O [FITC-labeled BIP] ({FITC}-VPMLK-OH; N-terminus and C-terminus assumed), the “Binding of FITC peptide to cellular components” value (endogenous Bax) is reported as “No significant binding”.

COC(=O)C[C@H](NC(=O)[C@H](C)NC(=O)[C@@H](NC(=O)OCc1ccccc1)C(C)C)C(=O)CF [z-VAD-fmk] (Cbz-Val-Ala-Asp(OMe)-CH2F) was tested, and the “Suppression of Caspase activation” value (Caspase) was “suppresses STS-induced Caspase activation” and the “Suppression of Bax-induced apoptosis in cell culture” value (HEK293T cells) was “showed anti-apoptotic activities”.

“IPMIK [mutant of V5 with V and L changed to I, used as negative control peptide, reference compound]” was tested, and the “Interaction with Bax (precipitation from cell lysates)” value (Bax) was “fails to interact with Bax” and the “Suppression of Bax-induced apoptosis in cell culture” value (HEK293T cells) was “lost its activity to suppress apoptosis; also recorded: did not suppress Bax-mediated cell death”.

B1: IPMIK (SEQ ID NO: 5) negative control (NC) peptide (peptide)
peptide: IPMIK
notes: also called negative control peptide; mutant peptide IPMIK
B1: no binding (human Bax [1]).

B2: Biotin-labeled BIP (biotin-VPMLK; SEQ ID NO: 1) (peptide)
peptide: Biotin-VPMLK
notes: also called biotin-labeled V5 peptide (BIP)
B2: no binding (tested: 200 uM) (Bak).

B3: biotin-IPMIK (SEQ ID NO: 5) negative control peptide (peptide)
peptide: Biotin-IPMIK
notes: also called biotin-labeled negative control (NC) peptide
B3: no binding (tested: 200 uM) (human Bax [2]).
